Entries after “also recorded” stand apart in the source; their conditions may differ. Like-named read-outs stand apart in the source and are kept apart here. Blank lines part the entries; values can stand above or below the compound they belong to.
Columns and labels:
[1] = target: T1, GnT-IV (Bos taurus, UniProt O77836); experiment: Specific assay for GnT-IV activity (pyridylaminated oligosaccharide acceptor, HPLC) with purified enzyme; type: biochemical, bovine; conditions: for Activity (%), Inhibition of GnT-IV by Nucleotides: nucleotide 2 mM in the presence of 0.5 mM UDP-GlcNAc, nothing added = 100%
T1 construct: it is thought that GnT-IV from bovine small intestine is a glycoprotein having at least Asn-linked sugar chains; from tissue; host or cells: bovine small intestine (microsome fraction, Triton X-100 solubilized, purified to Sample 7)
T1 sequence (O77836 93-535 limits assumed): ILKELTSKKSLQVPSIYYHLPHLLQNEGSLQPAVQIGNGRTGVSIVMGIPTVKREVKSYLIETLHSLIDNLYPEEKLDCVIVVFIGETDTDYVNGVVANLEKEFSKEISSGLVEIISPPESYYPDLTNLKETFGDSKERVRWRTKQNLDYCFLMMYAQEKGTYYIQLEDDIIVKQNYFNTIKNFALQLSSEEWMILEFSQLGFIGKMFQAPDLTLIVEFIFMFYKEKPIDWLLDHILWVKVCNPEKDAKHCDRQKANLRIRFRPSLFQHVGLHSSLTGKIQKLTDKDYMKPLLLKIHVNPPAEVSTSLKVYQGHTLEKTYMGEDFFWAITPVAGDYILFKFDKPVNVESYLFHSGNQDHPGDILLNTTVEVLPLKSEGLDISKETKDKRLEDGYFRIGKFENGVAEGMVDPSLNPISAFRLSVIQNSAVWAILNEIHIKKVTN
Description: Then, the reaction was terminated by boiling the solution for 2 minutes. […] The fluorescence of pyridylamino groups was detected using excitation at 320 nm and emission at 400 nm.

[2] = target: T2, GnT-IV (Bos taurus, UniProt O77836); experiment: Action of GnT-IV on glycoproteins (UDP-[14C]GlcNAc, SDS-PAGE and fluorography); type: biochemical, bovine; conditions: 37° C., 20 hours; FIG. 17 Panel B lanes 2 and 5
T2 construct: it is thought that GnT-IV from bovine small intestine is a glycoprotein having at least Asn-linked sugar chains; from tissue; host or cells: bovine small intestine (microsome fraction, Triton X-100 solubilized, purified to Sample 7)
T2 sequence (O77836 1-535): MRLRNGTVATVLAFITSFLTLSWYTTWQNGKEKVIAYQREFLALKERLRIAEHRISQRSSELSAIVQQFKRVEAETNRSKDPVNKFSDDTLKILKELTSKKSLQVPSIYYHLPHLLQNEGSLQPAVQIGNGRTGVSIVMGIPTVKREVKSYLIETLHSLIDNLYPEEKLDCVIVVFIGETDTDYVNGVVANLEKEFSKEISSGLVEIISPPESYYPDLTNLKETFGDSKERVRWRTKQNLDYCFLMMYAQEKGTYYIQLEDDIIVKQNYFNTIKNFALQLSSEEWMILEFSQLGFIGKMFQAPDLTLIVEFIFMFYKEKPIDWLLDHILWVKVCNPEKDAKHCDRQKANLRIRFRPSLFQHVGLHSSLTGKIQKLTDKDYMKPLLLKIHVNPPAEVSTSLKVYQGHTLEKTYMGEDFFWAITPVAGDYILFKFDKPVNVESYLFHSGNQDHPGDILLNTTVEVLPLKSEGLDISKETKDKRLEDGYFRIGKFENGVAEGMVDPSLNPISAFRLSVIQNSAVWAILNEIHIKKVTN
Description: GnT-IV reaction conditions: To 10 μl of a solution containing […] of GnT-IV, a substrate glycoprotein equivalent to 1.6 nmol of biantennary type sugar chains (for fetuin alone, the sugar chain content was 1.6 nmol) and 450 nCi of UDP-[^14C] […] One tenth of the resultant solution was analyzed by SDS-PAGE and fluorography.
For SDS-PAGE, 10-20% gradient gel (Daiichi Kagaku) was used. For fluorography, Amplify (Amersham) was used to expose the samples to X ray film for 20 hours.
GlcNAc as a sugar donor. Then, the reaction products were analyzed by SDS-PAGE and fluorography (Panels A and B, FIG. 17). As shown in lanes 2 and 5 of Panel B in FIG. 17, transfer of [^14 C] GlcNAc to asialo agalacto human transferrin and asialo agalacto, CHO cell-derived recombinant human erythropoietin.

[3] = additive 10 mM added to GnT-IV sample freed of metal ions, activity with 10 mM MnCl2 = 100%

Activity (%), Inhibition of GnT-IV by Nucleotides [1]: 27.3%
Compound: O=c1ccn([C@@H]2O[C@H](COP(=O)(O)OP(=O)(O)O)[C@@H](O)[C@H]2O)c(=O)[nH]1 [UDP]
Inhibition of GnT-IV by nucleotides / UDP derivatives [1]: inhibited the activity of this enzyme most strongly

Activity (%), Inhibition of GnT-IV by Nucleotides [1]: 67.4%
Compound: O=c1ccn([C@H]2C[C@H](O)[C@@H](COP(=O)(O)OP(=O)(O)O)O2)c(=O)[nH]1 [2′-deoxy-UDP]

Activity (%), Inhibition of GnT-IV by Nucleotides [1]: 112%
Compound: Nc1ccn([C@@H]2O[C@H](COP(=O)(O)OP(=O)(O)O)[C@@H](O)[C@H]2O)c(=O)n1 [CDP]
Inhibition of GnT-IV by nucleotides / UDP derivatives [1]: little inhibitory effect; also recorded: do not have inhibitory effect

Transfer of [14C]GlcNAc to glycoprotein by GnT-IV [2]: transfer of [^14 C] GlcNAc
Compound: asialo agalacto human transferrin: human transferrin treated with sialidase and β-galactosidase; glycoprotein substrate

Activity (%), Inhibition of GnT-IV by Nucleotides [1]: 88.2%
Compound: O=c1ccn([C@@H]2O[C@H](COP(=O)(O)OP(=O)(O)OP(=O)(O)O)[C@@H](O)[C@H]2O)c(=O)[nH]1 [UTP]

Inhibition of GnT-IV by nucleotides / UDP derivatives [1]: little inhibitory effect | Activity (%), Inhibition of GnT-IV by Nucleotides [1]: 97.3%
Compound: O=c1ccn([C@@H]2O[C@H](COP(=O)(O)O)[C@@H](O)[C@H]2O)c(=O)[nH]1 [UMP]

Activity (%), Inhibition of GnT-IV by Nucleotides [1]: 59.7%
Compound: CC(=O)N[C@H]1[C@@H](OP(=O)(O)OP(=O)(O)OC[C@H]2O[C@@H](n3ccc(=O)[nH]c3=O)[C@H](O)[C@@H]2O)O[C@H](CO)[C@H](O)[C@@H]1O [UDP-N-acetylgalactosamine]

Stabilization of the enzyme [1]: Stabilizing effect is recognized
Compound: OCC(O)CO [glycerol]

Activity (%), Divalent Cation Requirement of GnT-IV [1, 3]: 0%
Compound: [Cl][Cu][Cl] [CuCl2]

Requirement of divalent cation: effect of additive on activity [1]: Weak effect | Activity (%), Divalent Cation Requirement of GnT-IV [1, 3]: 7.2%
Compound: [Ca+2].[Cl-].[Cl-] [CaCl2]

Activity (%), Inhibition of GnT-IV by Nucleotides [1]: 110%
Compound: Cc1cn([C@H]2C[C@H](O)[C@@H](COP(=O)(O)OP(=O)(O)O)O2)c(=O)[nH]c1=O [TDP]
Inhibition of GnT-IV by nucleotides / UDP derivatives [1]: little inhibitory effect; also recorded: do not have inhibitory effect

Requirement of divalent cation: effect of additive on activity [1]: Weak effect | Activity (%), Divalent Cation Requirement of GnT-IV [1, 3]: 9.8%
Compound: [Cl][Fe][Cl] [FeCl2]

Transfer of [14C]GlcNAc to glycoprotein by GnT-IV [2]: transfer of [^14 C] GlcNAc
Compound: asialo agalacto, CHO cell-derived recombinant human erythropoietin: recombinant human erythropoietin with high biantennary sugar chain content treated with sialidase and β-galactosidase

Activity (%), Inhibition of GnT-IV by Nucleotides [1]: 92.3%
Compound: O=C(O)[C@H]1O[C@H](OP(=O)(O)OP(=O)(O)OC[C@H]2O[C@@H](n3ccc(=O)[nH]c3=O)[C@H](O)[C@@H]2O)[C@H](O)[C@@H](O)[C@@H]1O [UDP-glucuronic acid]

Activity (%), Divalent Cation Requirement of GnT-IV [1, 3]: 72.5%
Compound: [Cl-].[Cl-].[Mg+2] [MgCl2]

Requirement of divalent cation: effect of additive on activity [1]: greatest effect | Activity (%), Divalent Cation Requirement of GnT-IV [1, 3]: 100%
Compound: [Cl][Mn][Cl] [MnCl2]

Activity (%), Inhibition of GnT-IV by Nucleotides [1]: 115%
Compound: O=c1ccn([C@@H]2O[C@H](CO)[C@@H](O)[C@H]2O)c(=O)[nH]1 [Uridine]
Inhibition of GnT-IV by nucleotides / UDP derivatives [1]: little inhibitory effect; also recorded: do not have inhibitory effect

Compound: [Cl-].[Cl-].[Co+2] [CoCl2]
Activity (%), Divalent Cation Requirement of GnT-IV [1]: 74.8% | Effect of divalent cation relative to that of Mn2+ [1]: about 70%

Km ([1]; GnT-II product type oligosaccharide as receptor substrate, conditions (i)/Reference Example 2, read-out: Km toward UDP-GlcNAc): 220 µM
Compound: CC(=O)N[C@H]1[C@@H](OP(=O)(O)OP(=O)(O)OC[C@H]2O[C@@H](n3ccc(=O)[nH]c3=O)[C@H](O)[C@@H]2O)O[C@H](CO)[C@@H](O)[C@@H]1O [UDP-GlcNAc]

Activity (%), Inhibition of GnT-IV by Nucleotides [1]: 73.6%
Compound: NCCCCCCOP(=O)(O)OP(=O)(O)OCC1OC(n2ccc(=O)[nH]c2=O)C(O)C1O (centres unmarked) [UDP-hexanolamine]

Source: patent publication US6338955B2, “β1-4 N-acetylglucosaminyltransferase and gene encoding” (Kirin Beer Kabushiki Kaisha, priority 1996, dated 2002)
